{
  "source": "PubChem BioAssay (NCI)",
  "test_in_all_cases": "NCI anticancer screen, dose series, 48 h",
  "key": {"T-47D breast": {"test_system": "T-47D breast"}, "HOP-62 NSCLC": {"test_system": "HOP-62 NSCLC"}, "OVCAR-8 ovarian": {"test_system": "OVCAR-8 ovarian"}, "MALME-3M melanoma": {"test_system": "MALME-3M melanoma"}, "SF-295 CNS": {"test_system": "SF-295 CNS"}, "RXF 393 renal": {"test_system": "RXF 393 renal"}, "COLO 205 colon": {"test_system": "COLO 205 colon"}, "HCT-116 colon": {"test_system": "HCT-116 colon"}, "SNB-19 CNS": {"test_system": "SNB-19 CNS"}, "HCT-15 colon": {"test_system": "HCT-15 colon"}, "786-0 renal": {"test_system": "786-0 renal"}, "SF-268 CNS": {"test_system": "SF-268 CNS"}, "MDA-MB-231 breast": {"test_system": "MDA-MB-231 breast"}, "SF-539 CNS": {"test_system": "SF-539 CNS"}, "NCI-H522 lung": {"test_system": "NCI-H522 lung"}, "OVCAR-5 ovarian": {"test_system": "OVCAR-5 ovarian"}, "SN12C renal": {"test_system": "SN12C renal"}, "MDA-MB-435": {"test_system": "MDA-MB-435"}, "SW-620 colon": {"test_system": "SW-620 colon"}, "DU-145 prostate": {"test_system": "DU-145 prostate"}, "M14 melanoma": {"test_system": "M14 melanoma"}, "U251 CNS": {"test_system": "U251 CNS"}, "SK-OV-3 ovarian": {"test_system": "SK-OV-3 ovarian"}, "LOX IMVI melanoma": {"test_system": "LOX IMVI melanoma"}, "HCC-2998 colon": {"test_system": "HCC-2998 colon"}, "RPMI-8226 leukemia": {"test_system": "RPMI-8226 leukemia"}, "SK-MEL-5 melanoma": {"test_system": "SK-MEL-5 melanoma"}, "MOLT-4 leukemia": {"test_system": "MOLT-4 leukemia"}, "MCF7 breast": {"test_system": "MCF7 breast"}},
  "note": "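Grown in 96-well plates, cells were treated for 48 hours with each compound at five concentrations. Insufficient inhibition: endpoint recorded as highest concentration tested. The concentration for 50% growth inhibition is given as GI50. The concentration for full growth arrest is given as TGI.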",
  "data": [
    {"molecule": "O=C1NC(=O)c2c1c1c3ccccc3ccc1c1[nH]c3ccccc3c21", "values": [
      {"measurement": "GI50", "setting": "T-47D breast", "value": 0.524, "unit": "µM"},
      {"measurement": "TGI", "setting": "T-47D breast", "value": "> 70.9", "unit": "µM"},
      {"measurement": "GI50", "setting": "HOP-62 NSCLC", "value": 0.925, "unit": "µM"},
      {"measurement": "TGI", "setting": "HOP-62 NSCLC", "value": 17.6, "unit": "µM"},
      {"measurement": "GI50", "setting": "OVCAR-8 ovarian", "value": 1.29, "unit": "µM"},
      {"measurement": "TGI", "setting": "OVCAR-8 ovarian", "value": 24.8, "unit": "µM"},
      {"measurement": "GI50", "setting": "MALME-3M melanoma", "value": 0.207, "unit": "µM"},
      {"measurement": "TGI", "setting": "MALME-3M melanoma", "value": 6.01, "unit": "µM"},
      {"measurement": "GI50", "setting": "SF-295 CNS", "value": 1.61, "unit": "µM"},
      {"measurement": "TGI", "setting": "SF-295 CNS", "value": 14.6, "unit": "µM"},
      {"measurement": "GI50", "setting": "RXF 393 renal", "value": 0.317, "unit": "µM"},
      {"measurement": "TGI", "setting": "RXF 393 renal", "value": 1.84, "unit": "µM"},
      {"measurement": "GI50", "setting": "COLO 205 colon", "value": 1.3, "unit": "µM"},
      {"measurement": "TGI", "setting": "COLO 205 colon", "value": "> 100", "unit": "µM"},
      {"measurement": "GI50", "setting": "HCT-116 colon", "value": 0.852, "unit": "µM"},
      {"measurement": "TGI", "setting": "HCT-116 colon", "value": "> 100", "unit": "µM"},
      {"measurement": "GI50", "setting": "SNB-19 CNS", "value": 2.51, "unit": "µM"},
      {"measurement": "TGI", "setting": "SNB-19 CNS", "value": 17, "unit": "µM"},
      {"measurement": "GI50", "setting": "HCT-15 colon", "value": 0.593, "unit": "µM"},
      {"measurement": "TGI", "setting": "HCT-15 colon", "value": "> 100", "unit": "µM"},
      {"measurement": "GI50", "setting": "786-0 renal", "value": 1.2, "unit": "µM"},
      {"measurement": "TGI", "setting": "786-0 renal", "value": 16.6, "unit": "µM"},
      {"measurement": "GI50", "setting": "SF-268 CNS", "value": 1.43, "unit": "µM"},
      {"measurement": "TGI", "setting": "SF-268 CNS", "value": 34.3, "unit": "µM"},
      {"measurement": "GI50", "setting": "MDA-MB-231 breast", "value": 1.15, "unit": "µM"},
      {"measurement": "TGI", "setting": "MDA-MB-231 breast", "value": "> 100", "unit": "µM"},
      {"measurement": "GI50", "setting": "SF-539 CNS", "value": 0.663, "unit": "µM"},
      {"measurement": "TGI", "setting": "SF-539 CNS", "value": 35.7, "unit": "µM"},
      {"measurement": "GI50", "setting": "NCI-H522 lung", "value": 0.568, "unit": "µM"},
      {"measurement": "TGI", "setting": "NCI-H522 lung", "value": 15.6, "unit": "µM"},
      {"measurement": "GI50", "setting": "OVCAR-5 ovarian", "value": 1.63, "unit": "µM"},
      {"measurement": "TGI", "setting": "OVCAR-5 ovarian", "value": "> 100", "unit": "µM"},
      {"measurement": "GI50", "setting": "SN12C renal", "value": 0.516, "unit": "µM"},
      {"measurement": "TGI", "setting": "SN12C renal", "value": "> 88.2", "unit": "µM"},
      {"measurement": "GI50", "setting": "MDA-MB-435", "value": 0.247, "unit": "µM"},
      {"measurement": "TGI", "setting": "MDA-MB-435", "value": "> 100", "unit": "µM"},
      {"measurement": "GI50", "setting": "SW-620 colon", "value": 0.717, "unit": "µM"},
      {"measurement": "TGI", "setting": "SW-620 colon", "value": "> 100", "unit": "µM"},
      {"measurement": "GI50", "setting": "DU-145 prostate", "value": 0.96, "unit": "µM"},
      {"measurement": "TGI", "setting": "DU-145 prostate", "value": "> 100", "unit": "µM"},
      {"measurement": "GI50", "setting": "M14 melanoma", "value": 0.322, "unit": "µM"},
      {"measurement": "TGI", "setting": "M14 melanoma", "value": "> 100", "unit": "µM"},
      {"measurement": "GI50", "setting": "U251 CNS", "value": 1.06, "unit": "µM"},
      {"measurement": "TGI", "setting": "U251 CNS", "value": 15.7, "unit": "µM"},
      {"measurement": "GI50", "setting": "SK-OV-3 ovarian", "value": 0.354, "unit": "µM"},
      {"measurement": "TGI", "setting": "SK-OV-3 ovarian", "value": 6.43, "unit": "µM"},
      {"measurement": "GI50", "setting": "LOX IMVI melanoma", "value": 1.38, "unit": "µM"},
      {"measurement": "TGI", "setting": "LOX IMVI melanoma", "value": "> 100", "unit": "µM"},
      {"measurement": "GI50", "setting": "HCC-2998 colon", "value": 7.65, "unit": "µM"},
      {"measurement": "TGI", "setting": "HCC-2998 colon", "value": "> 100", "unit": "µM"},
      {"measurement": "GI50", "setting": "RPMI-8226 leukemia", "value": 0.5, "unit": "µM"},
      {"measurement": "TGI", "setting": "RPMI-8226 leukemia", "value": "> 100", "unit": "µM"},
      {"measurement": "GI50", "setting": "SK-MEL-5 melanoma", "value": 1.16, "unit": "µM"},
      {"measurement": "TGI", "setting": "SK-MEL-5 melanoma", "value": 26.6, "unit": "µM"},
      {"measurement": "GI50", "setting": "MOLT-4 leukemia", "value": 0.444, "unit": "µM"},
      {"measurement": "TGI", "setting": "MOLT-4 leukemia", "value": 7.48, "unit": "µM"},
      {"measurement": "GI50", "setting": "MCF7 breast", "value": 0.327, "unit": "µM"},
      {"measurement": "TGI", "setting": "MCF7 breast", "value": "> 100", "unit": "µM"}
    ]}
  ]
}
